Laboratory results from patent US20060258576A1, “Gdnf-related neuropeptides” (Licentia, Ltd, priority 2003, published 2006).
Entries after “also recorded” stand apart in the source; their conditions may differ. No end group written: not given here.

Columns and labels:
hippocampus area CA1 = test: Extracellular recordings (pEPSPs, population spikes) in acute rat hippocampal brain slice preparation; type: cell-based; conditions: for pEPSPs, fraction of control (FIG. 4D) / pSpikes, fraction of control (FIG. 4C): 10 nM SEQ ID NO:11, 20 nM SEQ ID NO:9 and SEQ ID NO:15, 250 μM NEM, adult rat hippocampus; for excitatory synaptic input into primary cells in the rat CA1: acute rat hippocampal brain slice; for reversal of effects upon removal of peptide from the superfusate: washout
synaptic transmission = conditions: Qian et al (1997); cited from earlier work
embryonic mouse tissues = test: Binding of I125-labeled peptides to embryonic mouse tissues (autoradiography, Tuj1 staining)
From the text: (§1) The binding of I^125-labeled peptides to embryonic and adult rodent tissues was studied in vitro. Chemically synthesized peptides containing an extra N-terminal tyrosine (Sigma-Genosys, Cambridge, UK) were labeled with lactoperoxidase (Trupp et al. (1995) J. Cell Biol. 130(1): 137-148). Specific activities obtained for each were 0.5-2.5×10^14 cpm/mmol, except for SEQ ID NO:9 10^13 cpm/mmol. From both E17 Wistar rat and E15 mouse embryos, kidneys, gut, pancreas and spinal cord were dissected. In addition, testes, ovaries, brain and adrenal glands of the embryonic mice were taken. The binding was performed and paraffin sections of embryonic tissues were processed as described (Partanen et al. (1987) Dev Biol 120(1): 186-197). Freshly cut adult rat brain slices of 1 mm were cut and incubated in 0.5-1 nmol/ml of ^125I-peptides, washed and processed for paraffin sections. Kodak (Rochester, N.Y.) NTB-2 emulsion was used for autoradiography and the samples were exposed from 3 to 12 weeks at +4° C. The sections were developed with Kodak D19 and stained with hematoxylin.
For immunohistochemical staining of tissues, paraffin sections were mounted with Immumount (Shandon, Pittsburgh, Pa.). Sections were stained with an anti-class III β-tubulin antibody (Tuj1; Covance Inc., Princeton, N.J.), which recognizes selectively neuronal cells. Staining was performed with Vectastain kit (Vector Laboratories, Burlingame, Calif.) according to manufacturer's instructions, except that the primary antibody (1:300) was incubated in +4° C. o/n.

adult rat brain = test: Binding of I125-labeled peptides to adult rat brain slices (autoradiography)
From the text: as §1
For immunohistochemical staining of tissues, paraffin sections were mounted with Immumount (Shandon, Pittsburgh, Pa.). Sections were stained with an anti-class III β-tubulin antibody (Tuj1; Covance Inc., Princeton, N.J.), which recognizes selectively neuronal cells. […]

primary neurons = conditions: U. Arumäe, personal communication; cited from earlier work
ureteric branching = conditions: Sainio et al. (1997); cited from earlier work
[1] = 10 nM peptide in the presence of 250 μM NEM
[2] = superfusion with 10-50 nM, 0.05 Hz stimulation of Schaffer collateral fibres, CA1, slices from P28-P35 rats

CCN1C(=O)C=CC1=O [NEM, N-ethylmaleimide, reference compound]
pEPSPs, fraction of control (FIG. 4D) (hippocampus area CA1): increases | pSpikes, fraction of control (FIG. 4C) (hippocampus area CA1): increases | stimulus-evoked responses (hippocampus area CA1; NEM by bath perfusion, every slice recorded): increased

PYY3-36: peptide YY fragment, literature comparison
levels necessary for inhibition of synaptic transmission (synaptic transmission): 1 µM

neuropeptide Y [NPY]
levels necessary for inhibition of synaptic transmission (synaptic transmission): 1 µM

FPLPA(a) (FPLPA-NH2; not fully specified) [SEQ ID NO:9, GDNF precursor-derived neuropeptide; human, mouse, rat]
specific binding (embryonic mouse tissues; I125-labeled peptide with extra N-terminal tyrosine): specific binding | tissue distribution of binding (embryonic mouse tissues; I125-labeled peptide, E15 mouse embryo tissues): restricted to embryonic mouse tissues outside the CNS; also recorded: bound to embryonic (E15) mouse tissues | binding in testis (embryonic mouse tissues; embryonic mouse testis (FIG. 3 I, J)): binding to the interstitium | distribution of binding versus neuronal β-tubulin (Tuj1) staining (embryonic mouse tissues; gut and metanephric kidney capsule (FIG. 3 E-H)): closely overlapped | presynaptic fiber volley (in words) (hippocampus area CA1; CA1, rat hippocampal slices): significant decrease | change of pSPs (hippocampus area CA1; CA1, rat hippocampal slices, concentration not given): −24% | excitatory synaptic input into primary cells in the rat CA1 (hippocampus area CA1): modulate | reversal of effects upon removal of peptide from the superfusate (hippocampus area CA1): fully or almost fully reversed

LLEAPAEDHSL(a) (LLEAPAEDHSL-NH2; not fully specified) [SEQ ID NO:11, GDNF precursor-derived neuropeptide; mouse, rat]
specific binding (adult rat brain; I125-labeled peptide with extra N-terminal tyrosine, 0.5-1 nmol/ml): specific binding | binding to adult rat brain slices (FIG. 3 A-D) (adult rat brain; I125-labeled peptide, sections containing the hippocampal area): extensive binding exclusively in adult rat brain; also recorded: intensive binding | pEPSPs, fraction of control (FIG. 4D) (hippocampus area CA1): substantially increases | pSpikes, fraction of control (FIG. 4C) (hippocampus area CA1): substantially increases | pEPSPs when peptide is added to NEM (hippocampus area CA1; [1]): no further increase | pSpikes when peptide is added to NEM (hippocampus area CA1; [1]): no further increase | increase in presynaptic volley with or without NEM (FIG. 4 A, B) (hippocampus area CA1; 10 nM peptide, absence or presence of 250 μM NEM): seen only in the absence of NEM | average increase in the presynaptic fiber volley (hippocampus area CA1; CA1, rat hippocampal slices): 34% | excitatory synaptic input into primary cells in the rat CA1 (hippocampus area CA1): modulate | effect on excitability in the presence of a Gi/o-blocking agent (hippocampus area CA1; in the presence of NEM (FIG. 4 B, C, D)): no effect | effective concentrations on pEPSP and pSpike (FIG. 6) (hippocampus area CA1; increasing concentrations): nanomolar | increase of pEPSPs (hippocampus area CA1; [2]): 30-40% | increase of population spikes (pSPs) (hippocampus area CA1; [2]): 30-40% | reversal of effects upon removal of peptide from the superfusate (hippocampus area CA1): fully or almost fully reversed

B1: glial cell line-derived neurotrophic factor (protein, UniProt P39905 78-211, looked up)
Glial cell line-derived …: SPDKQMAVLPRRERNRQAAAANPENSRGKGRRGQRGKNRGCVLTAIHLNVTDLGLGYETKEELIFRYCSGSCDAAETTYDKILKNLSRNRRLVSDKVGQACCRPIAFDDDLSFLDDNLVYHILRKHSAKRCGCI
notes: neurotrophic factor, literature comparison
concentrations required for maintenance of primary neurons (primary neurons): nanomolar | concentrations required for promotion of ureteric branching (ureteric branching): nanomolar
